Experimental data published in EP1635833B1 (priority 2003, dated 2004).
Like-named read-outs stand apart in the source and are kept apart here.

What was measured:
[1] = test system: ricinus oil-induced diarrhea; test: whole plant or invertebrate; conditions: in Rattus norvegicus, sc, 4 h, read-out: ED50 to postpone the ricinus oil-induced diarrhea
charcoal propulsion [2] = test: animal or person; assay type: in vivo, rats; conditions: Rattus norvegicus, sc, read-out: ED50 for an inhibition of charcoal propulsion (<60 %)
[3] = test system: ricinus oil-induced diarrhea; conditions: in vivo
[4] = test system: opioid-induced PCO2 increases; conditions: guinea pig, in vivo
[5] = test system: ricinus oil-induced diarrhea; conditions: rat, in vivo
[6] = test system: opioid-induced PCO2 increases; conditions: rat, in vivo
[7] = test system: opioid-induced PCO2 increases; conditions: in vivo
charcoal propulsion [8] = conditions: in vivo
[9] = test system: acetone-induced lifting behaviour; test: Tolerance in a chronic neuropathic pain model (CCI gerbils, acetone spray test); assay type: in vivo; conditions: 11 days
[10] = test system: ricinus oil-induced diarrhea; test: whole plant or invertebrate; conditions: in Meriones unguiculatus, sc, 8 h, read-out: ED50 to postpone the ricinus oil-induced diarrhea

## CN1CC[C@]23c4c5ccc(O)c4O[C@H]2[C@@H](O)C=C[C@H]3[C@H]1C5 [Morphine, morphine]
morphine-induced emesis; in vivo, ip
  doses causing central side-effects: > 0.8 mg/kg
[1]
  ED50: 2.19 mg/kg
Charcoal propulsion [2]
  ED50: 1.66 mg/kg
[3]
  inhibition of the ricinus oil -induced diarrhea: dose-dependent inhibition
[4]; sc
  PCO2: increase in PCO2
[5]
  inhibition of the ricinus oil -induced diarrhea: dose-dependent inhibition
[6]
  levels of Pco2: increased levels of Pco2

## Cc1cccc(C)c1NC(=O)CN1CCN(C2CCN(C(=O)c3cc(C(F)(F)F)cc(C(F)(F)F)c3)C(Cc3ccccc3)C2)CC1 (single isomer, unassigned; (+)) [Compound 95, (+)-(B)-trans-4-[1-[3,5-bis(trifluoromethyl)benzoyl]-2-(phenylmethyl)-4-piperidinyl]-N-(2,6-dimethylphenyl)-1-piperazine acetamide, (L)-malic acid (1:1)]
morphine-induced emesis; at 0.4 mg/kg morphine (submaximal dose)
  reduction of the frequency of retches, vomiting and periods of emesis: non-significant tendency
morphine-induced emesis; at 0.8 mg/kg morphine
  doses with activity on periods of emesis: ≥ 2.5 mg/kg
morphine-induced emesis; at 0.8 mg/kg morphine, 10 mg/kg Compound 95 i.p.
  number (frequency) of vomits: diminished significantly
morphine-induced emesis; at 0.8 mg/kg morphine, doses of 10 and 40 mg/kg i.p. Compound 95
  number of retches: significantly reduced
[7]
  PCO2 values: no effects were observed
  opioid-induced PCO2 levels: significant decreases
Charcoal propulsion [8]
  effect of adding Compound 95 on the outcome of the opioids: did not affect the outcome of the opioids
  inhibition of the charcoal propulsion: inactive
[3]
  effect of adding Compound 95 on the ED50s of the opioids: did not alter
  effects on constipation: minimal effects
[4]
  PCO2 values: did not affect PCO2 values
  opioid-induced PCO2 levels: reductions in the opioid-induced PCO2 levels
[9]; 2.5 mg/kg Compound 95 i.p. twice daily alone
  acetone-induced lifting behaviour: limited activity
[9]; 2.5 mg/kg Compound 95 with 2.5 mg/kg morphine i.p. twice daily
  acetone-induced lifting behaviour, activity over time: the activity remained present over the entire testing period
[5]
  effect of adding Compound 95 on the ED50s of the opioids: did not alter
  effects on constipation: minimal effects
[6]
  number of animals reaching high (>50 mm Hg) levels of PCO2: reduced
[6]; sc, 40 mg/kg
  PCO2 levels: did not affect the PCO2 levels

## COc1ccc2c3c1O[C@H]1C(=O)CC[C@@]4(O)[C@@H](C2)N(C)CC[C@]314 [Oxycodone, oxycodone]
[3]
  inhibition of the ricinus oil -induced diarrhea: dose-dependent inhibition

## COc1ccc2c3c1O[C@H]1[C@@H](O)C=C[C@H]4[C@@H](C2)N(C)CC[C@@]341 [Codeine, codeine]
[10]
  ED50: 1.67 mg/kg
[3]
  inhibition of the ricinus oil -induced diarrhea: dose-dependent inhibition
